The values that follow come from patent US9849189B2, “Targeted delivery of antimicrobial agents” (George Mason Research Foundation, Inc., priority 2008, dated 2017).

One data set deals with K12 E. coli. The data set is classed as cell-based. On the procedure: The antimicrobial activities of the peptides and their acetylated derivatives may be assessed using K-12 E. coli and assays based on an existing protocol used to study derivatives of hBD-3. The bacteria may be grown to mid-log phase in Luria Bertani (LB) broth. Aliquots of the culture may then be diluted (to a cell density of about 10^6 CFU/ml) into 10 mM sodium phosphate at a pH of about 7.5. Each of the aliquots may contain varied concentrations of peptide or acetylated peptide. The diluted bacterial cultures may then be incubated for about 2 hours at a temperature of about 37° C. After the proscribed time, serial dilutions of the assay cultures may be plated onto LB agar plates, and then allowed to incubate overnight at a temperature of about 37° C. After incubating, colonies may be counted. Dose-response curves may be prepared to calculate EC50's.
The antibacterial activities of the free and acetylated peptides may be determined using K12 E. coli and a known assay protocol. Bacteria may be incubated in Luria Bertani broth at 37° C. until reaching an OD600 of ˜0.8-˜1.1. Cell density may be monitored using optical density at 600 nm. Cells were then diluted to a concentration of 10^6 CFU/ml in ˜10 mM sodium phosphate (pH ˜7.5), containing varied concentrations of peptide or acetylated peptide. Peptide concentration used in the assays may range from 0 μg/ml to ˜100 μg/ml with intermediate concentrations varied for each peptide in order to maximize the number of data points in or near the transition region.
Assay cultures may be incubated at 37° C. for about two hours. Afterwards, serial dilutions of each assay culture may be prepared and then plated in triplicate onto Luria Bertani broth plates. The plates may be incubated at 37° C. overnight (˜16 h). Colonies may be counted the following morning.
Bacterial survival at each peptide concentration may be calculated according to the ratio of the number of colonies on the plates corresponding to the peptide concentration and the average number of colonies observed for assay cultures lacking peptide. The peptide concentration required to kill ˜50% of tile viable E. coli in the assay cultures (EC50) may be determined by plotting percent survival as a function of the log of peptide concentration (log μg/ml) and fitting the data, using GraphPad Prism (GraphPad Software, Inc., San Diego, Calif.), to Equation (1), which describes a sigmoidal dose-response.
In Equation (1), S is percent survival, ST and SB represent the upper and lower survival boundaries, X is the log of the peptide concentration, and H is the Hill slope of the transition region.
In fitting the data for all peptides and acetylated peptides (except acetylated Pep-1 and acetylated Pep-3), ST and SB may be restricted to values≦100% and ≧0% respectively. For acetylated Pep-1 and acetylated Pep-3, the absence of data points defining the lower boundary necessitated that SB be set to 0% in order to fit the data to Equation (1) and provide an estimated EC50 for these peptides.

Another data set concerns horse erythrocytes. The class given is cell-based. On the procedure:
Hemolytic activity may be assayed by, for example, incubating horse erythrocytes (e.g., Hemasource Inc. of Eugene, Oreg.). Varied peptide concentrations in phosphate buffered saline (e.g., Cellgro, produced by Mediatech, Inc. of Manassas, Va.) may be used for the incubation process. Hemolysis may be quantified by pelleting cells after incubation using centrifugation, and then measuring the absorbance of the supernatant at about 540 nm.
Hemolytic activities of the free and acetylated peptides may be determined using horse erythrocytes, in an assay adapted to a microtitre plate format. Cells may be prepared by centrifuging ˜1 ml of horse erythrocytes at 1620×g, and then resuspending the pelleted cells in ˜1 ml of 1× Dulbecco's phosphate-buffered saline (Dulbecco's PBS, Mediatech, Manassas, Va.). The cells may then be pelleted again. The process may be repeated (e.g., three more times). Following the final wash, the cells may be resuspended in ˜0.750 ml of PBS. Approximately two hundred microliters of washed erythrocyte suspension may then be diluted into ˜9800 μl of PBS to afford about 2% suspension. Aliquots of sterile water, peptide, and Dulbecco's PBS may then be combined in the wells of a 96 well microtitre plate so as to provide a gradient of peptide concentrations (0, ˜0.1, ˜1, ˜10, ˜100, and ˜1,000 μg/ml), to which the ˜2% erythrocyte may be added. […] An aliquot of supernatant (˜150 μl) from each well may then be transferred to a fresh microtitre plate, and the absorbance at ˜540 nm (heme) may be obtained for each solution. The percent hemolysis may be calculated based on the ratio of the absorption of supernatants from wells containing peptide and the absorption of supernatants from wells containing no peptide. In both cases, the recorded absorption may be adjusted for the background absorption of the plates.
Results of these assays appear in FIG. 21. […] Absorbance at 540 nm was used to monitor the release of hemoglobin by horse erythrocytes that have been incubated with varied concentrations of free peptide or acetylated peptide.

[1] abbreviates: acetylated peptide, K12 E. coli, 10 mM sodium phosphate pH ~7.5, 2 h 37° C., 90% confidence range in parentheses, ‡ estimated values.

Like-named read-outs stand apart in the source and are kept apart here. No end group written: not given here.

In the case of “Ac-RGRK(Ac)SSRRK(Ac)K(Ac)-NH2 [acetylated Pep-3]”, in the data set on K12 E. coli (setting [1]), the “Antimicrobial Activity (EC50), Acetylated” value was about 70 µg/mL.

“Ac-RGRK(Ac)SSRRK(Ac)K(Ac)-OH [acetylated Pep-1]”: in the data set with K12 E. coli (K12 E. coli, from EC50 values), the “antimicrobial potency as percent of free Pep-1” value is listed as about 5% and the “decrease in potency relative to free Pep-1” value is “sixteen”. Also, in the data set with E. coli BL21(DE3), the “LC90, Acetylated Peptide” value came out at 94.40 µg/mL.

For “Ac-RGRRSSRRK(Ac)K(Ac)-NH2 [acetylated Pep-4]”, the “Antimicrobial Activity (EC50), Acetylated” value with K12 E. coli (K12, 2 h) was 4.9 (4.2-5.8) μg/ml. For the same substance, the “antimicrobial potency as percent of free Pep-1” value with K12 E. coli (K12 E. coli, from EC50 values) is about 50%. Further, in the data set on E. coli BL21(DE3), the “LC90, Acetylated Peptide” value is 1.49 µg/mL.

As to “Ac-RGRRSSRRK(Ac)K(Ac)-OH [acetylated Pep-2]”, the “Antimicrobial Activity (EC50), Acetylated” value in the data set with K12 E. coli (K12, 2 h) is about 8.1 µg/mL; in the data set on K12 E. coli (setting [1]), 8.1 (6.5-9.9) μg/ml. Also, in the data set with K12 E. coli (K12 E. coli, from EC50 values), the “antimicrobial potency as percent of free Pep-1” value is reported as about 25%.

Turning to “RGRKSSRRKK [Pep-1, RGRKSSRRKK (SEQ ID NO:2)]”, the “Antimicrobial Activity (EC50), Free” value in the data set with K12 E. coli (K12, 2 h) is listed as 2.4 (2.2-2.7) μg/ml. For the same substance, the “hemolytic activity (in words)” value with horse erythrocytes was “some low-level hemolytic activity”. The “LC90, Free Peptide” value in the data set on E. coli BL21(DE3) came out at 2.23 µg/mL.

As to “RGRKSSRRKK-NH2 [Pep-3, RGRKSSRRKK-NH2 (SEQ ID NO:5)]”, the “Antimicrobial Activity (EC50), Free” value with K12 E. coli (K12, 2 h) is listed as 1.2 (1.1-1.2) μg/ml.

Turning to “RGRRSSRRKK [Pep-2, RGRRSSRRKK (SEQ ID NO:3)]”, in the data set on K12 E. coli (K12, 2 h), the “Antimicrobial Activity (EC50), Free” value is 1.2 (1.1-1.3) μg/ml. Moreover, the “hemolytic activity (in words)” value with horse erythrocytes was “some low-level hemolytic activity”.

Consider “RGRRSSRRKK-NH2 [Pep-4, RGRRSSRRKK-NH2 (SEQ ID NO:6)]”, for which the “hemolytic activity (in words)” value in the data set with horse erythrocytes was “some low-level hemolytic activity”. For the same substance, the “LC90, Free Peptide” value in the data set on E. coli BL21(DE3) was 0.15 µg/mL.
